{
  "source": "patent US11395823B2",
  "about": "“Topical administration of MEK inhibiting agents for the treatment of skin disorders” (Duke University, priority 2018, dated 2022)",
  "key": {"C57/BL6 mice [1]": {"tested_on": "C57/BL6 mice", "assay": "Imiquimod (IMQ)-induced psoriasis model"}, "C57/BL6 mice [2]": {"tested_on": "C57/BL6 mice", "assay": "DNFB-induced atopic dermatitis model (ear swelling)"}, "K5-CreER.Braf^Ca/+ mice": {"tested_on": "K5-CreER.Braf^Ca/+ mice", "assay": "Topical treatment of Braf mutation-induced skin tumors and inflammation in K5-CreER.Braf^Ca/+ mice", "type": "in vivo", "experimental": "Experiments were conducted that tested whether topical dose trametinib can effectively treat the skin lesions induced by Braf mutation. To do this, Braf mutation was induced in the rear back skins of 2-month old K5-CreER.Braf^Ca/+ mice with 4-OHT, and 7 days later, applied five consecutive daily topical doses of trametinib (see, FIG. 3a).\nBraf mutant animals: K14-Cre and K5-CreER mice were provided by Duke University. These animals were crossed with Tyr-CreER.Braf^Ca+/−.PTEN−/− mice which were provided by Duke University. Genotyping were performed via PCR. For topical induction, the back skins of adult animals were shaved and treated with two consecutive daily doses of 4-OHT (Sigma, 5 mg/ml in ethanol).\nMouse tissues: For H&E staining of mouse skins, 5 μm frozen tissue sections were fixed with ethanol and stained with Hematoxylin and Eosin. For immunostaining, 5 μm frozen tissue sections were fixed with cold methanol, incubated with and a primary antibody against CD8 (Tonbo Biosciences), and detected with a secondary antibody conjugated to Dylight 488 (Invitrogen) followed by counterstaining with Hoechst 33342. The images were obtained with the Olympus imaging system."}, "SKH-1Elite mice": {"tested_on": "SKH-1Elite mice", "assay": "UV-induced skin carcinogenesis", "type": "in vivo", "excerpt": "UV is a primary cause of melanoma and non-melanoma skin cancer. To assess whether topical trametinib inhibits UV-induced skin carcinogenesis, SKH animals (n=10, 5 male and 5 female) were irradiated biweekly with 160 mJ broad band UVB along with pretreatment of solvent or trametinib.\nUV induction of skin carcinogenesis: Six weeks old hairless SKH-1Elite mice were obtained from (Jackson Laboratory). Animals were subject to UVB irradiation (160-180 mJ dose) 3 times per week for 20 weeks using rayminder model 2 UVB midband lamp M2D24H and UV513AB digital UVA/UVB (280-400 nm) meter of General Tools. Mouse back skins were pretreated before each UV-radiation with 100 μl of solvent (5% DMSO in 95% acetone:olive oil (3:1 mixture) or 10 to 30 μM trametinib (n=5/group/sex)."}, "[3]": {"tested_on": "recipient mouse T-cell alloreactivity", "conditions": "oral administration; cited from earlier work"}},
  "data": [
    {"compound": "CC(=O)Nc1cccc(-n2c(=O)n(C3CC3)c(=O)c3c(Nc4ccc(I)cc4F)n(C)c(=O)c(C)c32)c1", "note": "[trametinib, N-(3-{3-Cyclopropyl-5-[(2-fluoro-4-iodophenyl)amino]-6,8-dimethyl-2,4,7-trioxo-3,4,6,7-tetrahydropyrido[4,3-d]pyrimidin-1 (2H)-yl}phenyl)acetamide]", "values": [
      {"measurement": "animal weight loss", "setting": "C57/BL6 mice [1]; 60 μM topical", "value": "did not induce animal weight loss"},
      {"measurement": "gross morphological changes of internal organs, including liver, kidney and spleen and lymph nodes", "setting": "C57/BL6 mice [1]; 60 μM topical", "value": "did not induce"},
      {"measurement": "PASI score", "setting": "C57/BL6 mice [1]; 60 μM topical, day 3", "value": "reduced the PASI score"},
      {"measurement": "PASI score difference to control", "setting": "C57/BL6 mice [1]; 60 μM topical, day 5", "value": "differences were minimized"},
      {"measurement": "IMQ-induced epidermal thickening", "setting": "C57/BL6 mice [1]; topical", "value": "reduces IMQ-induced epidermal thickening"},
      {"measurement": "clinical appearance of DNFB challenged right ear lobes", "setting": "C57/BL6 mice [2]; 0.2 μM topical", "value": "appeared thickened and inflamed"},
      {"measurement": "clinical appearance of DNFB challenged right ear lobes", "setting": "C57/BL6 mice [2]; 20 μM topical", "value": "appeared smooth and normal"},
      {"measurement": "DNFB-induced ear swelling", "setting": "C57/BL6 mice [2]; daily topical 0.2, 2, 20 μM, right ear", "value": "reduced by trametinib at a dose response manner"},
      {"measurement": "thickness of the control (solvent-treated left) ears", "setting": "C57/BL6 mice [2]; daily topical 0.2-20 μM", "value": "not significantly affected"},
      {"measurement": "thickened epidermis and dermal cellular infiltration of DNFB-treated skins (histology)", "setting": "C57/BL6 mice [2]; topical", "value": "normalized"},
      {"measurement": "histological appearance of kidney, spleen, and liver tissues", "setting": "C57/BL6 mice [2]; topical dosage", "value": "normal histological appearance"},
      {"measurement": "skin tumors (clinical images)", "setting": "K5-CreER.Braf^Ca/+ mice; five consecutive daily topical doses starting 7 days after 4-OHT, by day 11", "value": "completely regressed"},
      {"measurement": "treating oral lesions, topical versus systemic delivery of the same amount", "setting": "K5-CreER.Braf^Ca/+ mice; topical vs systemic", "value": "more effective than systemic delivery"},
      {"measurement": "CD8+ immune cells in the dermis (immunostaining)", "setting": "K5-CreER.Braf^Ca/+ mice; topical, five daily doses", "value": "reduced CD8+ immune cells in the dermis"},
      {"measurement": "epidermal neoplasia (histological analysis, H&E)", "setting": "K5-CreER.Braf^Ca/+ mice; topical, five daily doses", "value": "regressed epidermal neoplasia"},
      {"measurement": "number of tumor nodules", "setting": "SKH-1Elite mice; 10 μM topical pretreatment before each UVB irradiation", "value": "significantly lower number of tumor nodules"},
      {"measurement": "number of tumor nodules", "setting": "SKH-1Elite mice; 30 μM topical pretreatment before each UVB irradiation", "value": "significantly lower number of tumor nodules"},
      {"measurement": "recipient mouse T-cell alloreactivity", "setting": "[3]", "value": "suppresses recipient mouse T-cell alloreactivity without affecting graft-vs-tumor effects"}
    ]}
  ]
}
